Columns and labels:
Assay type in all cases: in vivo
[1] = tested on: slender amaranth (Am); assay: Test Example 7: crop plant selectivity by upland field soil treatment (corn), herbicidal effects; set-up: scale not given here; conditions: dose 6.3 g ai/10a, 21st day after application
Method: (§1) (Test on Crop Plant Selectivity by Upland Field Soil Treatment)
(§2) In a plastic pot (surface area: 600 cm^2) filled with sand, corn (Ze), green foxtail (Se), pale smartweed (Po), slender amaranth (Am), common lambsquarters (Ch) and China jute (Ab) were sown and covered with soil. […] The plants were then cultured in a green house, and the evaluation of the herbicidal effects and phytotoxicity was conducted on the 21st day after the application in accordance with the standards as identified in Table 47.

[2] = tested on: China jute (Ab); assay: as above; set-up: scale not given here; conditions: dose 6.3 g ai/10a, 21st day after application
Method: as §1, §2

[3] = tested on: pale smartweed (Po); assay: as above; set-up: scale not given here; conditions: dose 6.3 g ai/10a, 21st day after application
Method: as §1, §2

[4] = tested on: common lambsquarters (Ch); assay: as above; set-up: scale not given here; conditions: dose 6.3 g ai/10a, 21st day after application
Method: as §1, §2

[5] = tested on: green foxtail (Se); assay: as above; set-up: scale not given here; conditions: dose 6.3 g ai/10a, 21st day after application
Method: as §1, §2

[6] = tested on: slender amaranth (Am); assay: Test Example 5: crop plant selectivity by upland field soil treatment (wheat), herbicidal effects; set-up: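 grade of growth control; 5 = at least 90%; 4 = 70 to 90%; 3 = 50 to 70%; 2 = 30 to 50%; 1 = 10 to 30%; 0 = under 10%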; conditions: dose 6.3 g ai/10a, 21st day after application
Method: as §1
(§3) In a plastic pot (surface area: 600 cm^2) filled with sand, wheat (Tr), Diaitaria ciliaris (Di), green foxtail (Se), pale smartweed (Po), slender amaranth (Am), common lambsquarters (Ch) and China jute (Ab) were sown and covered with soil. […] The plants were then cultured in a green house, and the evaluation of the herbicidal effects and phytotoxicity was conducted on the 21st day after the application in accordance with the standards as identified in Table 47. Symbol—represents “not tested”.

[7] = tested on: China jute (Ab); assay: as above; set-up: scale not given here; conditions: dose 6.3 g ai/10a, 21st day after application
Method: as §1, §3

[8] = tested on: pale smartweed (Po); assay: as above; set-up: scale not given here; conditions: dose 6.3 g ai/10a, 21st day after application
Method: as §1, §3

[9] = tested on: common lambsquarters (Ch); assay: as above; set-up: scale not given here; conditions: dose 6.3 g ai/10a, 21st day after application
Method: as §1, §3

[10] = tested on: green foxtail (Se); assay: as above; set-up: scale not given here; conditions: dose 6.3 g ai/10a, 21st day after application
Method: as §1, §3

[11] = tested on: wheat (Tr); assay: Test Example 5: crop plant selectivity by upland field soil treatment (wheat), phytotoxicity; set-up: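 grade of crop injury; 5 = at least 90%; 4 = 70 to 90%; 3 = 50 to 70%; 2 = 30 to 50%; 1 = 10 to 30%; 0 = under 10%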; conditions: dose 6.3 g ai/10a, 21st day after application
Method: as §1, §3

[12] = tested on: cotton (Go); assay: Test Example 4: crop plant selectivity by upland field soil treatment (cotton), phytotoxicity; set-up: scale not given here; conditions: dose 6.3 g ai/10 a, evaluated 21st day after application
Method: as §1
(§4) In a plastic pot (surface area: 600 cm^2) filled with sand, cotton (Go), Diaitaria ciliaris (Di), green foxtail (Se), pale smartweed (Po), slender amaranth (Am), common lambsquarters (Ch) and China jute (Ab) were sown and covered with soil. […] The plants were then cultured in a green house, and the evaluation of the herbicidal effects and phytotoxicity was conducted on the 21st day after the application in accordance with the standards as identified in Table 47. Symbol—represents “not tested”.

[13] = tested on: barnyardgrass (Ec); assay: Test Example 2: herbicidal effects by upland field soil treatment; conditions: 100 g of the active ingredient per 10 ares, 21st day after the application, index 0-5 of Table 47;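 further: grade of growth control; 5 = at least 90%; 4 = 70 to 90%; 3 = 50 to 70%; 2 = 30 to 50%; 1 = 10 to 30%; 0 = under 10%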
From the text: (§5) (Test on Herbicidal Effects by Upland Field Soil Treatment)

[14] = tested on: rice flatsedge (Ci); assay: as above; conditions: 100 g of the active ingredient per 10 ares, 21st day after the application, index 0-5 of Table 47
From the text: as §5

[15] = tested on: slender amaranth (Am); assay: as above; conditions: 100 g of the active ingredient per 10 ares, 21st day after the application, index 0-5 of Table 47
From the text: as §5

[16] = tested on: pale smartweed (Po); assay: as above; conditions: 100 g of the active ingredient per 10 ares, 21st day after the application, index 0-5 of Table 47
From the text: as §5

[17] = tested on: Digitaria ciliaris (Di); assay: as above; conditions: 100 g of the active ingredient per 10 ares, 21st day after the application, index 0-5 of Table 47;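 further: grade of growth control; 5 = at least 90%; 4 = 70 to 90%; 3 = 50 to 70%; 2 = 30 to 50%; 1 = 10 to 30%; 0 = under 10%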
From the text: as §5

[18] = tested on: common lambsquarters (Ch); assay: as above; conditions: 100 g of the active ingredient per 10 ares, 21st day after the application, index 0-5 of Table 47
From the text: as §5

[19] = tested on: barnyardgrass (Ec); assay: Test Example 3: herbicidal effects by upland field foliage treatment; set-up: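 grade of growth control; 5 = at least 90%; 4 = 70 to 90%; 3 = 50 to 70%; 2 = 30 to 50%; 1 = 10 to 30%; 0 = under 10%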; conditions: 100 g of the active ingredient per 10 ares, evaluated on the 14th day after treatment
Outline: (§6)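 Test plants had been raised from seed for 2 weeks in a greenhouse, in soil-covered sand pots of 120 cm^2, and were returned there after spraying.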

[20] = tested on: rice flatsedge (Ci); assay: as above; set-up: scale not given here; conditions: 100 g of the active ingredient per 10 ares, evaluated on the 14th day after treatment
Outline: as §6

[21] = tested on: slender amaranth (Am); assay: as above; set-up: scale not given here; conditions: 100 g of the active ingredient per 10 ares, evaluated on the 14th day after treatment
Outline: as §6

[22] = tested on: Diaitaria ciliaris (Di); assay: as above; set-up: scale not given here; conditions: 100 g of the active ingredient per 10 ares, evaluated on the 14th day after treatment
Outline: as §6

[23] = tested on: pale smartweed (Po); assay: as above; set-up: scale not given here; conditions: 100 g of the active ingredient per 10 ares, evaluated on the 14th day after treatment
Outline: as §6

[24] = tested on: common lambsquarters (Ch); assay: as above; set-up: scale not given here; conditions: 100 g of the active ingredient per 10 ares, evaluated on the 14th day after treatment
Outline: as §6

[25] = tested on: slender amaranth (Am); assay: Test Example 4: crop plant selectivity by upland field soil treatment (cotton), herbicidal effects; set-up: scale not given here; conditions: dose 6.3 g ai/10 a, evaluated 21st day after application
Method: as §1, §4

[26] = tested on: China jute (Ab); assay: as above; set-up: scale not given here; conditions: dose 6.3 g ai/10 a, evaluated 21st day after application
Method: as §1, §4

[27] = tested on: pale smartweed (Po); assay: as above; set-up: scale not given here; conditions: dose 6.3 g ai/10 a, evaluated 21st day after application
Method: as §1, §4

[28] = tested on: common lambsquarters (Ch); assay: as above; set-up: scale not given here; conditions: dose 6.3 g ai/10 a, evaluated 21st day after application
Method: as §1, §4

[29] = tested on: green foxtail (Se); assay: as above; set-up: scale not given here; conditions: dose 6.3 g ai/10 a, evaluated 21st day after application
Method: as §1, §4

[30] = tested on: barnyardgrass (Ec); assay: Test Example 1: herbicidal effects by paddy field soil treatment; conditions: 100 g of the active ingredient per 10 ares, 21st day after the application, index 0-5 of Table 47;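 further: grade of growth control; 5 = at least 90%; 4 = 70 to 90%; 3 = 50 to 70%; 2 = 30 to 50%; 1 = 10 to 30%; 0 = under 10%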
Outline: (§7)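 Herbicidal effect was scored against a graded standard 21 days after treatment. Seeds were sown in puddled, leveled paddy soil flooded to 3 cm depth, and the active ingredient was applied at 100 g per 10 ares before greenhouse culture.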

[31] = tested on: bulrush (Sc); assay: as above; conditions: 100 g of the active ingredient per 10 ares, 21st day after the application, index 0-5 of Table 47;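 further: grade of growth control; 5 = at least 90%; 4 = 70 to 90%; 3 = 50 to 70%; 2 = 30 to 50%; 1 = 10 to 30%; 0 = under 10%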
Outline: as §7

[32] = tested on: monochoria (Mo); assay: as above; conditions: 100 g of the active ingredient per 10 ares, 21st day after the application, index 0-5 of Table 47
Outline: as §7

[33] = tested on: corn (Ze); assay: Test Example 7: crop plant selectivity by upland field soil treatment (corn), phytotoxicity; set-up: scale not given here; conditions: dose 6.3 g ai/10a, 21st day after application
Method: as §1, §2

[34] = tested on: soybean (Gl); assay: Test Example 6: crop plant selectivity by upland field soil treatment (soybean), phytotoxicity; set-up: scale not given here; conditions: dose 6.3 g ai/10a, 21st day after application
Method: as §1
(§8) In a plastic pot (surface area: 600 cm^2) filled with sand, soybean (Gl), Diaitaria ciliaris (Di), green foxtail (Se), Johnsongrass (So), pale smartweed (Po), slender amaranth (Am), common lambsquarters (Ch) and China jute (Ab) were sown and covered with soil. […] The plants were then cultured in a green house, and the evaluation of the herbicidal effects and phytotoxicity was conducted on the 21st day after the application in accordance with the standards as identified in Table 47. Symbol—represents “not tested”.

[35] = tested on: slender amaranth (Am); assay: Test Example 6: crop plant selectivity by upland field soil treatment (soybean), herbicidal effects; set-up: scale not given here; conditions: dose 6.3 g ai/10a, 21st day after application
Method: as §1, §8

[36] = tested on: China jute (Ab); assay: as above; set-up: scale not given here; conditions: dose 6.3 g ai/10a, 21st day after application
Method: as §1, §8

[37] = tested on: pale smartweed (Po); assay: as above; set-up: scale not given here; conditions: dose 6.3 g ai/10a, 21st day after application
Method: as §1, §8

[38] = tested on: common lambsquarters (Ch); assay: as above; set-up: scale not given here; conditions: dose 6.3 g ai/10a, 21st day after application
Method: as §1, §8

[39] = tested on: green foxtail (Se); assay: as above; set-up: scale not given here; conditions: dose 6.3 g ai/10a, 21st day after application
Method: as §1, §8

Cn1c(C(F)(F)F)ccc(-c2cc(Br)c(Cl)cc2F)c1=O [1-138]
Herbicidal effects Am [1]: 5
Herbicidal effects Ab [2]: 4
Herbicidal effects Po [3]: 5
Herbicidal effects Ch [4]: 5
Herbicidal effects Se [5]: 5
Herbicidal effects Am [6]: 5
Herbicidal effects Ab [7]: 4
Herbicidal effects Po [8]: 5
Herbicidal effects Ch [9]: 5
Herbicidal effects Se [10]: 5
Phytotoxicity Tr [11]: 1
Phytotoxicity Go [12]: 1
Herbicidal effects Ec [13]: 5
Herbicidal effects Ci [14]: 5
Herbicidal effects Am [15]: 5
Herbicidal effects Po [16]: 5
Herbicidal effects Di [17]: 5
Herbicidal effects Ch [18]: 5
Herbicidal effects Ec [19]: 5
Herbicidal effects Ci [20]: 5
Herbicidal effects Am [21]: 5
Herbicidal effects Di [22]: 5
Herbicidal effects Po [23]: 5
Herbicidal effects Ch [24]: 5
Herbicidal effects Am [25]: 5
Herbicidal effects Ab [26]: 4
Herbicidal effects Po [27]: 5
Herbicidal effects Ch [28]: 5
Herbicidal effects Se [29]: 5
Herbicidal effects Ec [30]: 5
Herbicidal effects Sc [31]: 5
Herbicidal effects Mo [32]: 5
Phytotoxicity Ze [33]: 2
Phytotoxicity Gl [34]: 2
Herbicidal effects Am [35]: 5
Herbicidal effects Ab [36]: 4
Herbicidal effects Po [37]: 5
Herbicidal effects Ch [38]: 5
Herbicidal effects Se [39]: 5

Source: US6472348B1, “Pyridone derivatives and herbicides” (Kumiai Chemical Industry Co., Ltd., priority 1996, dated 2002)
